The target in assay [1] is T1, Serine/threonine-protein kinase Sgk2 (Homo sapiens) (UniProt Q9HBY8).
T1 sequence (whole entry): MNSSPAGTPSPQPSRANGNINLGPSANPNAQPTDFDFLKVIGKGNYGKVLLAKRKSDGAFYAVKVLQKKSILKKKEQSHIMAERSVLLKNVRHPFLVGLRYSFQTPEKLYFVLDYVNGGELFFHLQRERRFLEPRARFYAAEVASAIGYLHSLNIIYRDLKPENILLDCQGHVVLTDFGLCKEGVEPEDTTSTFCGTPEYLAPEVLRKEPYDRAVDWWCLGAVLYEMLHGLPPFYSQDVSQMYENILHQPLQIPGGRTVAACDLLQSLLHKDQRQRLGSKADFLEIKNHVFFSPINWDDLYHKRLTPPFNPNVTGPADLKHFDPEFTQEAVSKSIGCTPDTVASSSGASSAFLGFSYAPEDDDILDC
Briefly: Selectivity interaction (Upstate Kinase Profiler service (Millipore)) EUB0000056c SGK2. Conditions: at 1 µM.

The target of assay [2] is Dual specificity mitogen-activated protein kinase kinase 1 (Homo sapiens, UniProt Q02750). The assay is described as follows: Selectivity interaction (Kinase panel (DSF assay)) EUB0001558a MAP2K1. Background: In DSF a fluorescence change marks the thermal transition of the protein.
Dual specificity mitogen-activated protein kinase kinase 1, sequence (Q02750 whole entry): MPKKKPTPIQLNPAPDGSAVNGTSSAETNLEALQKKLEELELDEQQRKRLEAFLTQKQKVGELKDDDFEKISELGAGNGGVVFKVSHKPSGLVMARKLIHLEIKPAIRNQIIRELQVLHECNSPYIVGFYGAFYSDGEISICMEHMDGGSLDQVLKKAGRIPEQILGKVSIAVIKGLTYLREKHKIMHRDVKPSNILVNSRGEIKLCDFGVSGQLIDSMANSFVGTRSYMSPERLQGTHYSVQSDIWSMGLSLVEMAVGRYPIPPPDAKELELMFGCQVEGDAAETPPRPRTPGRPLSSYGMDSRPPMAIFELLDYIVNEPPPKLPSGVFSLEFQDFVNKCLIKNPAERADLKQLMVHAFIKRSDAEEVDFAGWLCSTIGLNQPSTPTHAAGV
Assay [3] deals with T2, Homeodomain-interacting protein kinase 4 (Homo sapiens) (UniProt Q8NE63).
T2 sequence (whole entry): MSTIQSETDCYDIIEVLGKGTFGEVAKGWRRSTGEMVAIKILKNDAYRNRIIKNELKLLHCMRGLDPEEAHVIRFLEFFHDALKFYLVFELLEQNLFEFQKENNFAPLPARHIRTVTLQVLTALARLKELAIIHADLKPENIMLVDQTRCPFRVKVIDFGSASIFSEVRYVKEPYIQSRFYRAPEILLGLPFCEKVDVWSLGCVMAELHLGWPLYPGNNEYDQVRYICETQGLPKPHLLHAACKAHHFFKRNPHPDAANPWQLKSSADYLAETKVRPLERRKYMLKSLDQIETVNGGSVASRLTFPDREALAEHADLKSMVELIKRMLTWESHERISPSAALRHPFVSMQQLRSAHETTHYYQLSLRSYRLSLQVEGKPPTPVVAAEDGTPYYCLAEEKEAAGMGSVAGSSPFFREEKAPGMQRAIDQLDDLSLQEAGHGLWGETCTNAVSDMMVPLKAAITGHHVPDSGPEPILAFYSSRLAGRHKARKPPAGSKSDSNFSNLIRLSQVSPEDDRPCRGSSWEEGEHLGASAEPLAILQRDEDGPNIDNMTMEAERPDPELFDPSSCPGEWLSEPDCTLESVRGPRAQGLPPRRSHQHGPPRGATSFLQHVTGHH
Briefly: Selectivity interaction (KinomeScan (DiscoverX)) EUB0000092b HIPK4. Conditions: at 10 µM.

Assay [4] addresses T3, MAP kinase-activated protein kinase 5 (Homo sapiens) (UniProt Q8IW41).
T3 sequence (whole entry): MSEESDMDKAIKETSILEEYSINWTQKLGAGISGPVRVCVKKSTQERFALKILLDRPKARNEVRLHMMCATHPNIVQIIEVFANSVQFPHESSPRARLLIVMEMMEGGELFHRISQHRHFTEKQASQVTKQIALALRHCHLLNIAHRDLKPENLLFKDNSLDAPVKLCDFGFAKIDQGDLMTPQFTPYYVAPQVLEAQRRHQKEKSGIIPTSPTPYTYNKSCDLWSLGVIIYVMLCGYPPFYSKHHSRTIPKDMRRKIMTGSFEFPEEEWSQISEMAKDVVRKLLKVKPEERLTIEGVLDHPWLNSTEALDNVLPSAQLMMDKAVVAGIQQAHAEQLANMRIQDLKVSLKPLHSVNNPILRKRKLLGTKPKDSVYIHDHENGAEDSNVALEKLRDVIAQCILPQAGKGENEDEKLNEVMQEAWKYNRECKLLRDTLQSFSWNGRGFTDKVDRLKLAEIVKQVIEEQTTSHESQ
Briefly: Selectivity interaction (Kinase panel (Z-LYTE Assay)) EUB0001632a MAPKAPK5. Conditions: at 10 µM.

Assay [5] has as its target T4, Histone-lysine N-methyltransferase EHMT2 (Homo sapiens) (UniProt Q96KQ7).
T4 sequence (whole entry): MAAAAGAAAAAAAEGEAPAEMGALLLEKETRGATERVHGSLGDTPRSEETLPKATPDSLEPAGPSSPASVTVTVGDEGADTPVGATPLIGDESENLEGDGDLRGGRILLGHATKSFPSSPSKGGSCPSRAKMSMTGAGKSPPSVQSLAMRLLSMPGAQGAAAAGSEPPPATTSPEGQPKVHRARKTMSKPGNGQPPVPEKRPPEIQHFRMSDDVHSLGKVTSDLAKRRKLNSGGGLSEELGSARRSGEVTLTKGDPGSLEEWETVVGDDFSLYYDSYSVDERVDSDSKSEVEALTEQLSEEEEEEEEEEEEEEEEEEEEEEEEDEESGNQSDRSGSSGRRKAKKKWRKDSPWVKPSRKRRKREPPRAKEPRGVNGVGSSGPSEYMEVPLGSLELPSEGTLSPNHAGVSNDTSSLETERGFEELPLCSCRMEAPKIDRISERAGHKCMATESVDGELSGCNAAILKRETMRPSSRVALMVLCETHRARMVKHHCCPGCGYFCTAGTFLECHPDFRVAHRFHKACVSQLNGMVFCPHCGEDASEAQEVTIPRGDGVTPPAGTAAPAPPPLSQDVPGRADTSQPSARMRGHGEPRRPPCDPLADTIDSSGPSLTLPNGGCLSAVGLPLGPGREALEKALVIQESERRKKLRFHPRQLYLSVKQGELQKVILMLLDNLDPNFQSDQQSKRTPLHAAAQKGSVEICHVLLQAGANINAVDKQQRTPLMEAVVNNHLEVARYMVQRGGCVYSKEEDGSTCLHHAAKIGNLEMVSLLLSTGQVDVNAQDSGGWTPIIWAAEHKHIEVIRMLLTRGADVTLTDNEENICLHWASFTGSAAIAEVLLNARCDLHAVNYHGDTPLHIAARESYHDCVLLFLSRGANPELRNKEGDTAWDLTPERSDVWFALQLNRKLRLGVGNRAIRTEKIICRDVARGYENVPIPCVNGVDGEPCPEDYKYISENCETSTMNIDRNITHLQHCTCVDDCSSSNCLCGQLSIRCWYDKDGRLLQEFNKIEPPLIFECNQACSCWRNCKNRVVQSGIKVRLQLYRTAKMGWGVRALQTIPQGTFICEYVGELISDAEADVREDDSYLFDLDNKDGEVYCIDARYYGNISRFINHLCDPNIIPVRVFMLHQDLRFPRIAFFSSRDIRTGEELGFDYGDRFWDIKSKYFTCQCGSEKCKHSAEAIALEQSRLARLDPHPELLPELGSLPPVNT
The assay is described as follows: Selectivity interaction (Methyltransferase screen (radiometric assays, panel of 8 PRMTs, 21 protein lysine methyltransferases, 3 DNA methyltransferases, and one RNA methyltransferase)) EUB0000272b EHMT2.

The target in assay [6] is Serine/threonine-protein kinase Nek6 (Homo sapiens) (UniProt Q9HC98). Briefly: Selectivity interaction (Kinase panel (Invitrogen)) EUB0000639a NEK6. Conditions: at 200 nM.
Serine/threonine-protein kinase Nek6 (Homo sapiens), sequence (Q9HC98 whole entry): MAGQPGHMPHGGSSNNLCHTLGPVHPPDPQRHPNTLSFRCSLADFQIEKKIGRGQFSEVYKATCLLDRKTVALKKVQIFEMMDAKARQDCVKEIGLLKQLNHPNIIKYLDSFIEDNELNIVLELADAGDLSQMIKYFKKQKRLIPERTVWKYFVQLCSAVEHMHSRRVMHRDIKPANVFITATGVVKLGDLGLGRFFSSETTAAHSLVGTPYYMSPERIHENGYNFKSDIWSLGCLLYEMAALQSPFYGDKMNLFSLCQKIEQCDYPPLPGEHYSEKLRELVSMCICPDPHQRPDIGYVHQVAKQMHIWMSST
For a further assay, the target named is Aurora kinase B (Homo sapiens, UniProt Q96GD4). Briefly: Selectivity interaction (Enzymatic assay) EUB0001199aCl AURKB.
Aurora kinase B, sequence (Q96GD4 whole entry): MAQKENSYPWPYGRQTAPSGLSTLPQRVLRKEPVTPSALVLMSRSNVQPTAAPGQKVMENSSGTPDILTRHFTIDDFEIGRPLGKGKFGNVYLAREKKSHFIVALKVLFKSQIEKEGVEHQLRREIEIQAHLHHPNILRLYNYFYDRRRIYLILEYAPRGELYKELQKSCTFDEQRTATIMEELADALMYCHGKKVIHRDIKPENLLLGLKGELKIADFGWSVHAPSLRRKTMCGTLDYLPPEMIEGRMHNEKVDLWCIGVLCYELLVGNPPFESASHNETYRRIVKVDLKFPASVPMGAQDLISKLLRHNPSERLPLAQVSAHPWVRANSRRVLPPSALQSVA

For the molecule `Cc1ccc(-c2ccc3c(ccc4sc5c(c43)NC[C@@H](C)NC5=O)n2)cn1`, the % of inhibition in assay [1] stood at 3%.
As for `CC(C)(O)[C@H](F)CN1Cc2cc(NC(=O)c3cnn4cccnc34)c(N3CCOCC3)cc2C1=O`, the dTM in assay [2] is 1.3 K.
`CCC(=O)N1CCN(c2ccc(-n3c(=O)ccc4cnc5ccc(-c6cnc7ccccc7c6)cc5c43)cc2C(F)(F)F)CC1` registered a % of control in assay [3] of 4.6%.
The molecule `Cn1cc(-n2cnc3c(NCc4nc5cc(Cl)c(Cl)cc5[nH]4)nc(N4CCOCC4)nc32)cn1` showed a % of control in assay [4] of 7.02%.
Turning to `Cc1cc(C)cc([C@H]2c3cc(C)ccc3NC(=O)CN2C(=O)c2ccc(Br)s2)c1`, the % of activity in assay [5] (at 1 µM) came out at 95.7%; in assay [5] (at 10 µM), 98.3%.
On to `CC[C@@H]1[C@H](F)C(=O)N[C@@H]1COc1nccc2cc(C(N)=O)c(OC)cc12` [ZIMLOVISERTIB], for which, in assay [6], the % of inhibition is 6.81%.
As usually defined, the IC50 is the concentration that inhibits the measured activity by half. Read a high IC50 as a need for much substance. In the case of `CN1Cc2nccc(-c3cn(C)nc3-c3ccc(F)cc3)c2C1=O`, half-maximal inhibition on Aurora kinase B (IC50) required 10.2 µM.
